Assay results taken from patent publication US10442796B2, “2,3,5-substituted thiophene compound as protein kinase inhibitor” (KOREA INSTITUTE OF SCIENCE AND TECHNOLOGY, priority 2016, dated 2019).

Tests used:
Experiment in all cases: Kinase inhibitory activity, full kinase panel
Assay type in all cases: biochemical
Details in all cases: single concentration of 1 μM, read-out: %Inhibitory ability
ANKK1 = ANKK1 (Homo sapiens, UniProt Q8NFD2)
Method: (§1) In order to measure inhibitory activity (% inhibitory ability) against a protein kinase with respect to the compound of the present invention, a biochemical assay was performed in a full kinase panel shown in the following Table 1. As an experimental compound, the (S)-5-((3-fluorophenyl)ethynyl)-N-(piperidin-3-yl)-3-ureidothiophene-2-carboxamide synthesized in Example 24 was used.

AURKB = AURKB (Homo sapiens, UniProt Q96GD4)
AURKB, sequence (Q96GD4 whole entry, species assumed): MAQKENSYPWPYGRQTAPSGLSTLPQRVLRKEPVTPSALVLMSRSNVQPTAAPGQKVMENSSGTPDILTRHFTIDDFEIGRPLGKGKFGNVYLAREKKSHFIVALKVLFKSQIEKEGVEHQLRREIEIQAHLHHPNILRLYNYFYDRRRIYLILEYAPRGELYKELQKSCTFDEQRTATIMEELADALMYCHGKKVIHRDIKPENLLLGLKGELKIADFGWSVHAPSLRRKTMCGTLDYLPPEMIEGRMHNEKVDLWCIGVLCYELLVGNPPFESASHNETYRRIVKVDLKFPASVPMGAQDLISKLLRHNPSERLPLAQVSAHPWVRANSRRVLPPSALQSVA
Method: as §1

CAMK1 = CAMK1 (Homo sapiens, UniProt Q14012)
Method: as §1

CHEK2 = CHEK2 (Homo sapiens, UniProt O96017)
CHEK2, sequence (O96017 whole entry, species assumed): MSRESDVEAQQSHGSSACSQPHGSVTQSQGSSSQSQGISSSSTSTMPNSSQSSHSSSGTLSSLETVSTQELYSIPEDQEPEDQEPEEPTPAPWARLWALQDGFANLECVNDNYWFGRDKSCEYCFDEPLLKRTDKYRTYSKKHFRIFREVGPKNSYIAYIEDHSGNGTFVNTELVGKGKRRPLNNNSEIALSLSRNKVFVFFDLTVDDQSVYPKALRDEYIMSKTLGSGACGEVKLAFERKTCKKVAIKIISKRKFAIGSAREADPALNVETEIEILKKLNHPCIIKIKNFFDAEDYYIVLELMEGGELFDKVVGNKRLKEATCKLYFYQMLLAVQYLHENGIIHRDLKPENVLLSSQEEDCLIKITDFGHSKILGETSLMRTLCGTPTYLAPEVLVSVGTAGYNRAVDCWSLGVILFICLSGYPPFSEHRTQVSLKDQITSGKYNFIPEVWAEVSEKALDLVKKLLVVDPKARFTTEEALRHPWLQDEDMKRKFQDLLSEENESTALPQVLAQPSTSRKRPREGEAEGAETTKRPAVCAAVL
Method: as §1

DAPK1 = DAPK1 (Homo sapiens, UniProt P53355)
Method: as §1

DLK = DLK (Homo sapiens, UniProt Q12852)
Method: as §1

DRAK1 = DRAK1 (Homo sapiens, UniProt Q9UEE5)
Method: as §1

LCK = LCK (Homo sapiens, UniProt P06239)
Method: as §1

LOK = LOK (Homo sapiens, UniProt O94804)
Method: as §1

MAP3K2 = MAP3K2 (Homo sapiens, UniProt Q9Y2U5)
MAP3K2, sequence (Q9Y2U5 whole entry, species assumed): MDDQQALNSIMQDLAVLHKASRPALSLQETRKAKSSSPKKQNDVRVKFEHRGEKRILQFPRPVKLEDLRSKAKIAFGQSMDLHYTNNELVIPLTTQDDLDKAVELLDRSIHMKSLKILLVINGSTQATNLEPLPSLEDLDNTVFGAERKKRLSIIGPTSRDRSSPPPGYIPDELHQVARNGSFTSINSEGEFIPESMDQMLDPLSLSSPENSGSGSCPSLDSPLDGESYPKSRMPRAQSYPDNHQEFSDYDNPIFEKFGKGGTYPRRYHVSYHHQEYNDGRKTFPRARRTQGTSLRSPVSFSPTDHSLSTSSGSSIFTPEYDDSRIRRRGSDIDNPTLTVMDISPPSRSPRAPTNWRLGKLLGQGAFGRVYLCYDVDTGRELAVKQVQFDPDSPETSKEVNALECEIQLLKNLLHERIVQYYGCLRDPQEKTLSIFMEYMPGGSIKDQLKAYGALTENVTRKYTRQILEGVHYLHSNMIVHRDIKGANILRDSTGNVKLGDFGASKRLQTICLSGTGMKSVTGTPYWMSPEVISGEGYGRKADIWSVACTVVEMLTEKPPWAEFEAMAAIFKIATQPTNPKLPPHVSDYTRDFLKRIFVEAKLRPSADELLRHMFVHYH
Method: as §1

MAP4K2 = MAP4K2 (Homo sapiens, UniProt Q12851)
Method: as §1

MEK2 = MEK2 (Homo sapiens, UniProt P36507)
Method: as §1

MEK5 = MEK5 (Homo sapiens, UniProt Q13163)
Method: as §1

OSR1 = OSR1 (Homo sapiens, UniProt O95747)
OSR1, sequence (O95747 whole entry): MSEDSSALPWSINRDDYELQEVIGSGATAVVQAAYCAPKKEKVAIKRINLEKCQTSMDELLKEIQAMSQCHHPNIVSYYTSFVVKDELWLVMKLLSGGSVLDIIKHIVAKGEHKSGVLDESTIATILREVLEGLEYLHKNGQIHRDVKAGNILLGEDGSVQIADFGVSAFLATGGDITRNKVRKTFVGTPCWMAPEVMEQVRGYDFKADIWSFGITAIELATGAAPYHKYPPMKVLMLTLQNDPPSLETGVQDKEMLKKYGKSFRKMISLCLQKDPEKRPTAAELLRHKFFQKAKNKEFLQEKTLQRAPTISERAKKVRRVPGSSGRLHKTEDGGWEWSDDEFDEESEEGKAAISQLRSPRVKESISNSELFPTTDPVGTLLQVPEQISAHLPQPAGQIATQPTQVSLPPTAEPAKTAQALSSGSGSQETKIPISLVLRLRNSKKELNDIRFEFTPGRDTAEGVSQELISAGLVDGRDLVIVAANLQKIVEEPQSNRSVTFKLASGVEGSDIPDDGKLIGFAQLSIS
Method: as §1

PAK6 = PAK6 (Homo sapiens, UniProt Q9NQU5)
PAK6, sequence (Q9NQU5 whole entry): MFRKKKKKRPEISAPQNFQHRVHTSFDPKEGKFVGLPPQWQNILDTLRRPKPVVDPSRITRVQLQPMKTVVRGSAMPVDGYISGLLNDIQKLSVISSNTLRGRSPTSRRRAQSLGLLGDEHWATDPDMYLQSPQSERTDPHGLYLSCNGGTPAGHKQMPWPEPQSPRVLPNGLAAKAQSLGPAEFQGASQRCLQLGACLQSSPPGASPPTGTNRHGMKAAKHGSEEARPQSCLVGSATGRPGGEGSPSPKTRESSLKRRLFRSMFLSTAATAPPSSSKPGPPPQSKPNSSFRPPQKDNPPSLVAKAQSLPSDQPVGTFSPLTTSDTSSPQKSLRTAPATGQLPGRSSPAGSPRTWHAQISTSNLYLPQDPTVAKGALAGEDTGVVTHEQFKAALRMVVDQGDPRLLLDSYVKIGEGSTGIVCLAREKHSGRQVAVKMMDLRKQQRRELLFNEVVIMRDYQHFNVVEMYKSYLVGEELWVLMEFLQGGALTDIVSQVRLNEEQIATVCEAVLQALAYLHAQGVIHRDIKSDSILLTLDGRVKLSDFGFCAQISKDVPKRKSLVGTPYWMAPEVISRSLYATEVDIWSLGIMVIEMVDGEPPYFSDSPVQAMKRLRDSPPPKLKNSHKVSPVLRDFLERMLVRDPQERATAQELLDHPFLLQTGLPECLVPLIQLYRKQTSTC
Method: as §1

PDGFRB = PDGFRB (Homo sapiens, UniProt P09619)
PDGFRB, sequence (P09619 33-1106): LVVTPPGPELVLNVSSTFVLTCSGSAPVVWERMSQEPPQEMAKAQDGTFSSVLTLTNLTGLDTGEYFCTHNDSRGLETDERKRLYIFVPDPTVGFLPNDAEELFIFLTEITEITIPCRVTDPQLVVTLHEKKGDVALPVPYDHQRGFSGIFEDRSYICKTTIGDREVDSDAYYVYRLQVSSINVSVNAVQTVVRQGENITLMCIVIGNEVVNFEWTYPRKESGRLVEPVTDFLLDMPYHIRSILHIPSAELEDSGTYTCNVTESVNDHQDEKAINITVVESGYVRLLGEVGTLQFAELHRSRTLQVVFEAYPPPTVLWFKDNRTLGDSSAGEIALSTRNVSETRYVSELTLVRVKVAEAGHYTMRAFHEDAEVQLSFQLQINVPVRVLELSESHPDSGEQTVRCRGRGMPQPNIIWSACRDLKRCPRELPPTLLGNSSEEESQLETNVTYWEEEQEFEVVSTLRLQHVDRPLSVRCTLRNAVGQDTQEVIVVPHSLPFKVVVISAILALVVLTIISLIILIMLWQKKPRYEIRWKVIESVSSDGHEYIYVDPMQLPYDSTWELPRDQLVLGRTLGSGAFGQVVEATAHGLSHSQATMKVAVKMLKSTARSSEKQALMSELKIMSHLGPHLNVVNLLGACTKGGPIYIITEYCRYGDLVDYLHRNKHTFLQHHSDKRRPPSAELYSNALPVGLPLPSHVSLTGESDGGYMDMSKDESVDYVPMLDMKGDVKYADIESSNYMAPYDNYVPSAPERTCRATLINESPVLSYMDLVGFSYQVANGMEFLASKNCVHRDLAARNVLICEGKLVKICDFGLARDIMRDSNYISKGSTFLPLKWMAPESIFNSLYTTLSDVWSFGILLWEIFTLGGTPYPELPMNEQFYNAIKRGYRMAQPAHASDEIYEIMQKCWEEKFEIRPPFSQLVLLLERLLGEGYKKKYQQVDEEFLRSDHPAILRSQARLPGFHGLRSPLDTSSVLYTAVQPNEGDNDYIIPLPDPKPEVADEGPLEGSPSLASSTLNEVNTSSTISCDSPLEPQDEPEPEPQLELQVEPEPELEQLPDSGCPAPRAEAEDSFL
Method: as §1

PHKG1 = PHKG1 (Homo sapiens, UniProt Q16816)
PHKG1, sequence (Q16816 whole entry): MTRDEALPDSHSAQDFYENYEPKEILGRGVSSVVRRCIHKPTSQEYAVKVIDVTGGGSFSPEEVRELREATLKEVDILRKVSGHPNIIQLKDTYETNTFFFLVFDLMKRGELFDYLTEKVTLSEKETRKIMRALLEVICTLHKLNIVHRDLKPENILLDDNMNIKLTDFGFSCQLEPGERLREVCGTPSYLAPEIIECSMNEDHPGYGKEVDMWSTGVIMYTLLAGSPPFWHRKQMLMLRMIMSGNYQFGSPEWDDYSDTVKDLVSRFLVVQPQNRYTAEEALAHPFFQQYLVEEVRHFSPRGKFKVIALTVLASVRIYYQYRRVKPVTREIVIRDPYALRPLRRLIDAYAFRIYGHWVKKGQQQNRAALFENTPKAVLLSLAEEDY
Method: as §1

PRKX = PRKX (Homo sapiens, UniProt P51817)
Method: as §1

RET = RET (Homo sapiens, UniProt P07949)
Method: as §1

RIOK1 = RIOK1 (Homo sapiens, UniProt Q9BRS2)
RIOK1, sequence (Q9BRS2 whole entry): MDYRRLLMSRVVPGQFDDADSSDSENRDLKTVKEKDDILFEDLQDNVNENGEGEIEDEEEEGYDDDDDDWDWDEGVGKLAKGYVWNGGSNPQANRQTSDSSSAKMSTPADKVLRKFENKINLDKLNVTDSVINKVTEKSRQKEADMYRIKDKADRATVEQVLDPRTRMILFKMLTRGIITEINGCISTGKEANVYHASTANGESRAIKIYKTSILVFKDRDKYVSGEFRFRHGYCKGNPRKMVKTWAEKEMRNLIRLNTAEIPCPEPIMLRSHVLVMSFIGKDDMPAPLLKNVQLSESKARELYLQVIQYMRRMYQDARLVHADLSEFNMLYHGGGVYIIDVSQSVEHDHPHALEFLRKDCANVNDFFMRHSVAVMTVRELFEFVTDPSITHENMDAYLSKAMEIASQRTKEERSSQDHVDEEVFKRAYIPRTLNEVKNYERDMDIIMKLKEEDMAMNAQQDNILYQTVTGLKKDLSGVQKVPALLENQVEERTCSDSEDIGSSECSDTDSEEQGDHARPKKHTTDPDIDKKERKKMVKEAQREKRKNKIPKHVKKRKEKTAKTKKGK
Method: as §1

SIK2 = SIK2 (Homo sapiens, UniProt Q9H0K1)
Method: as §1

SRC = SRC (Homo sapiens, UniProt P12931)
Method: as §1

TNIK = TNIK (Homo sapiens, UniProt Q9UKE5)
Method: as §1

TRKA = TRKA (Homo sapiens, UniProt P04629)
Method: as §1

TSSK3 = TSSK3 (Homo sapiens, UniProt Q96PN8)
TSSK3, sequence (Q96PN8 whole entry, species assumed): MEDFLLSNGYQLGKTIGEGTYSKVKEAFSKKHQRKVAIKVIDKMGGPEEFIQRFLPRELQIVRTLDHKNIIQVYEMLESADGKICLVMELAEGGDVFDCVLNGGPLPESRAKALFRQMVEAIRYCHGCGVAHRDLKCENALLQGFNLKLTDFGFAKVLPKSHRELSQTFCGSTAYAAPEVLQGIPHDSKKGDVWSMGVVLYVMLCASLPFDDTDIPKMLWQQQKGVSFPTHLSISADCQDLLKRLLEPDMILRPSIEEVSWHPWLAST
Method: as §1

TXK = TXK (Homo sapiens, UniProt P42681)
Method: as §1

ULK1 = ULK1 (Homo sapiens, UniProt O75385)
Method: as §1

## Cc1ccc(C#Cc2cc(NC(N)=O)c(C(=O)N[C@H]3CCCNC3)s2)cc1 [Example 24, (S)—N-(piperidin-3-yl)-5-(p-tolylethynyl)-3-ureidothiophene-2-carboxamide]
ANKK1
  inhibition at 1 µM: 93.3%
AURKB
  inhibition at 1 µM: 66%
CAMK1
  inhibition at 1 µM: 67%
CHEK2
  inhibition at 1 µM: 100%
DAPK1
  inhibition at 1 µM: 94.4%
DLK
  inhibition at 1 µM: 68%
DRAK1
  inhibition at 1 µM: 99.5%
LCK
  inhibition at 1 µM: 72%
LOK
  inhibition at 1 µM: 71%
MAP3K2
  inhibition at 1 µM: 97.7%
MAP4K2
  inhibition at 1 µM: 92.7%
MEK2
  inhibition at 1 µM: 93.3%
MEK5
  inhibition at 1 µM: 99.9%
OSR1
  inhibition at 1 µM: 68%
PAK6
  inhibition at 1 µM: 90.3%
PDGFRB
  inhibition at 1 µM: 99.9%
PHKG1
  inhibition at 1 µM: 98.4%
PRKX
  inhibition at 1 µM: 73%
RET
  inhibition at 1 µM: 98.7%
RIOK1
  inhibition at 1 µM: 77%
SIK2
  inhibition at 1 µM: 73%
SRC
  inhibition at 1 µM: 98.1%
TNIK
  inhibition at 1 µM: 96.3%
TRKA
  inhibition at 1 µM: 100%
TSSK3
  inhibition at 1 µM: 72%
TXK
  inhibition at 1 µM: 83%
ULK1
  inhibition at 1 µM: 99.8%
